Measured values: patent publication US20210260057A1, “COMPOSITIONS AND METHODS TARGETING GLUTAMINE AND ITS METABOLISM FOR DIAGNOSING AND TREATING CANCER AND THERAPY-ASSOCIATED SIDE EFFECTS” (CEDARS-SINAI MEDICAL CENTER, priority 2018, published 2021)
Several values for one entry are separate records, joined by “and”; a condition that tells them apart may be missing. Identical values can stand only once.

Legend:
CWR22Rv1 with CAF = assay: 3D co-cultures of CAF-CWR22Rv1, neuroendocrine gene panel rtPCR; assay type: cell-based, human; conditions: in the context of enzalutamide, 3 days, glutamine free media, well below control levels, F test P<0.0001
Procedure: (§1) 3D organotypic co-culture. A modified version of the 3D organotypic co-culture system was performed in a collagen matrix similar to that previously reported (Stark H J, Baur M, Breitkreutz D, Mirancea N, and Fusenig N E. Organotypic keratinocyte cocultures in defined medium with regular epidermal morphogenesis and differentiation. J Invest Dermatol. 1999; 112(5):681-91). Matrix were prepared by mixing five volumes of rat tail collagen with two volumes of matrigel in one volume of 10×DMEM medium (GE Healthcare Life Sciences), and one volume of FBS (Atlanta Biologicals). CWR22Rv1 and primary mouse prostatic fibroblasts (WT or RAS^V12) were combined in a 1:3 ratio in the matrix. Nylon squares were coated with collagen and placed on metal grids in a 6-well plate. Matrix plugs containing cells, formed in 96 well plates (150 μl), were transferred onto the nylon squares and media was added to the level of the nylon mesh. Following treatments, the cells were dissociated from the matrix with collagenase and dispase for FACS analysis.
(§2) RNA expression level. All real-time PCR assays were carried out using three technical replicates and three independent cDNA syntheses on a 7500 Real-Time PCR System (Applied Biosystems). Data were normalized using an internal control gene, either GAPDH or β-actin. Relative quantification of expression levels (RQ) was calculated using the ^2-ΔΔCt method.

CWR22Rv1 cells [1] = assay: Seahorse XF-24 metabolic flux analysis, CWR22Rv1; assay type: cell-based, human; conditions: CWR22Rv1 in Ras^V12 fibroblast-CM; GPNA 10 μM
Procedure: (§3) Seahorse XF-24 metabolic flux analysis. Oxygen consumption rate (OCR, pmol min-1) was measured with the Searhorse Bioscience XF24 extracellular flux analyzer. Cells were incubated in a CO2-free incubator for 1 h at 37° C. to allow for temperature and pH equilibration prior to loading into the XF24 apparatus. Initial assays were performed to optimize cell number, FCCP concentration and oligomycin concentration (data not shown). We used L-Glutamic acid γ-(p-nitroanilide) hydrochloride (GPNA, 10 μM), a specific glutamine […] inhibitor.

CWR22Rv1 cells [2] = assay: 3D organotypic co-culture, epithelial proliferation by FACS (EpCAM+/Ki67+); assay type: cell-based, human; conditions: 3D co-cultures of fibroblasts and CWR22Rv1; P<0.05 (GPNA), P<0.001 (BPTES)
Procedure: as §1

[3] = test system: CWR22Rv1 and CAF tissue recombinants; assay: Sub-renal capsule tissue recombinant xenograft, intact mice; assay type: in vivo, mouse; conditions: GPNA vs control
Text: Tissue recombination mouse models.

C4-2B cells [4] = assay: Seahorse XF-24 metabolic flux analysis, C4-2B; assay type: cell-based, human; conditions: C4-2B in Ras^V12 fibroblast-CM; GPNA 10 μM
Procedure: as §3

[5] = test system: CWR22Rv1 and CAF tissue recombinants; assay: Castrate resistant sub-renal capsule xenograft (castration + enzalutamide)
Procedure: Tissue recombination mouse models. Cell recombinants were prepared by mixing 2×10^5 epithelial (CWR22Rv1) cells with 6×10^5 CAFs or stromal cells expressing KRAS^V12 per site in collagen as described before (Banerj ee J, Mishra R, Li X, Jackson R S, 2nd, Sharma A, and Bhowmick N A. A reciprocal role of prostate cancer on stromal DNA damage. Oncogene. 2014; 33(41):4924-31). The mice were either left intact or castrated 1 week after grafting. […] Castrated mice were treated with enzalutamide (5 mg/kg) either alone or in combination with L-glutamic acid Υ-(p-nitroanilide) hydrochloride (GPNA; 10 mg/kg; Sigma-Aldrich) for three weeks. The tumor volumes were measured using digital calipers and calculated using the following formula: length (mm)×width (mm)×width (mm)×0.52. When the mice were sacrificed and tumors were excised and photographed. Formalin-fixed, paraffin-embedded (FFPE) xenograft tumor tissue was sectioned and stained with hematoxylin and eosin (H&E) and staining for chromogranin A, TUNEL, phosphorylated-hi stone H3 and phosphorylated-mTOR.

RASAL3 mRNA in NAF = assay: RASAL3 mRNA expression (rtPCR) in NAF; assay type: cell-based, human; conditions: 5-day treatment; Bic 10^−5 M, Enza 10^−5 M, R1881 10^−9 M
Procedure: as §2

RASAL3 mRNA in CAF = assay: RASAL3 mRNA expression (rtPCR) in CAF; assay type: cell-based, human; conditions: 5-day treatment; Bic 10^−5 M, Enza 10^−5 M, R1881 10^−9 M, 5-Aza 5 mmol/L
Procedure: as §2

RASAL3 promoter = assay: Methylation specific PCR of RASAL3 exon 2 in CAF; assay type: cell-based, human; conditions: CAF after treatment
Procedure: (FIG. 13A) Quantitative rtPCR analysis of RASAL3 in NAF and CAF was performed following 5 day treatment with bicalutamide (Bic, 10^−5 M), enzalutamide (Enza, 10^−5 M), R1881 (10^−9 M), or 5-Azacytidine (5-Aza, […]). RASAL3 expression was normalized GAPDH expression. Data represent the mean±SEM. *P<0.05, ***P<0.001, and ****P<0.0001, by two-way ANOVA followed by multiple comparison. Results are the average of at least three independent experiments. (FIG. 13B) MS-PCR of the RASAL3 exon 2 methylation status in CAF after treatment with enzalutamide, R1881, 5-Azacytidine and bicalutamide was performed. The PCR products in the lanes marked “U” indicate unmethylated templates for RASAL3 gene, whereas the products in the lanes marked “M” indicate methylated templates. Data are representative of three independent experiments.

RASAL3 exon 2 = assay: Bisulfite sequencing of RASAL3 exon 2 in CAF; assay type: cell-based, human; conditions: CAF treated with R1881 for 5 days
Procedure: Bisulfite Sequencing. Bisulfite sequencing was performed as described previously (Haldar S, Dru C, Mishra R, Tripathi M, Duong F, Angara B, Fernandez A, Arditi M, and Bhowmick N A. Histone deacetylase inhibitors mediate DNA damage repair in ameliorating hemorrhagic cystitis. Sci Rep. 2016; 6(39257). Briefly, genomic DNA was extracted from the NAF and CAF samples and 200 ng of DNA was bisulfite converted by using the EZ DNA Methylation-Gold Kit (Zymo Research, Irvine, Calif.) according to the manufacturer's protocol. Three overlapping primers were used for amplification of Exon 2 region of RASAL3 by ZymoTaq DNA polymerase (Zymo Research) and subsequently cloned into the pCR2.1-TOPO vector (Invitrogen by Life Technologies, Carlsbad, Calif.). The primer sequences used to amplify the three regions were designed by using the Meth-Primer program (www.urogene.org/methprimer/) and are listed in Table 4. Five clones from each sample were sequenced by using Sanger's method.

bone marrow fibroblasts = assay: Glutamine expression by bone marrow fibroblasts; assay type: cell-based; conditions: FIG. 15E, FIG. 17D
Procedure: (§4) Measurements of glutamine. Glutamine was measured in blood plasma and conditioned media by using glutamine detection kit (Abcam) following manufacturer protocol. Deproteinization step was performed in plasma samples prior to glutamine detection. The absorbance was measured at 450 nm using a Bio-Rad Benchmark plus microplate spectrophotometer (Bio-Rad Laboratories).

[6] = test system: prostate cancer (serum PSA); assay: PSA response of PCa patients on androgen targeted therapy; assay type: in vivo, human; design: PSA on treatment: unit not given beside the values
Text: Plasma glutamine level may be prognostic for ADT sensitivity. Considering the striking finding that glutamine can induce ADT resistance, we tested if glutamine concentrations can be associated with ADT sensitivity in prostate cancer patients. We measured blood plasma glutamine concentrations in 28 PCa patients that received ADT (Table 1). Of note, the specific androgen signaling-axis interventions in the patient pool included, androgen receptor antagonists: bicalutamide, enzalutamide, and apalutamide, as well as androgen synthesis inhibitors: leuprolide, goserelin, triptorelin, and abiraterone.

prostatic fibroblasts = assay: Glutamine in conditioned media of prostatic fibroblasts; assay type: cell-based; conditions: FIG. 17C
Procedure: as §4

[7] = test system: prostate cancer epithelial cells; assay: ALDH (stem marker) in prostate cancer epithelial cells; assay type: cell-based; conditions: prostate cancer epithelial cells (FIG. 17A, 17B)
[8] = test system: human prostate cancer cells (CWR22Rv1); assay: Gene expression in prostate cancer cells (FIG. 15A-D); assay type: cell-based; conditions: for Bone morphogenic protein (BMP) expression: CWR22Rv1 (FIG. 15A); for TET2 expression: FIG. 15C, 15D
C4-2B = assay: Glutamine transporter and glutaminase gene expression, C4-2B; assay type: cell-based, human; conditions: glutamine 2 mM
Procedure: as §2

CWR22Rv1 [9] = assay: CWR22Rv1 proliferation by cell counting in conditioned media; assay type: cell-based, human; conditions: NAF-CM supplemented with 0.4 mM glutamine, 72 hrs; compared to CAF-CM
Procedure: (FIG. 3A) Relative mRNA expression levels of CAF-marker genes in WT and Ras^V12 mouse fibroblast determined by quantitative rtPCR and analyzed using 2-way ANOVA (n≤3). (FIG. 3B) EpCAM-positive cancer epithelial was quantitated by FACS of 3D co-cultures of human epithelial (CWR22Rv1) cells and WT or Ras^V12 mouse fibroblasts. Statistical analysis was performed using two-tailed student's t test (n≤3). (FIG. 3C) ATP was measured in CWR22Rv1 after incubation with conditioned media human NAF or CAF or mouse WT or Ras^V12 fibroblast or oligomycin in glutamine free media (n≤3). Statistical analysis was performed using 1-way ANOVA with multiple comparisons. (FIG. 3D) The diagram represents the TCA cycle in CWR22Rv1 cells treated with NAF- or CAF-conditioned media for 72 hours prior to metabolome analysis (n≤3). (FIG. 3E) The metabolome analysis further indicated differential flux to aspartate, oxidized GSH, and GSH-reduced in CWR22Rv1 cells incubated with NAF- or CAF-conditioned media. (FIG. 3F) Glutamine concentrations were measured in the conditioned media from indicated mouse fibroblasts cultured for 72 hours. (FIG. 3D-FIG. 3F) Statistical analysis was performed using two-tailed student's t test (n≤3). (FIG. 3G) CWR22Rv1 proliferation was measured by cell counting following incubation with NAF and CAF conditioned media for 72 hrs in glutamine free media. […]

CWR22Rv1 [10] = assay: qPCR of neuroendocrine marker genes, CWR22Rv1; assay type: cell-based, human; conditions: CWR22Rv1, L-glutamine alone vs vehicle; F-test P<0.0001
Procedure: as §2

C4-2B cells [11] = assay: qPCR of neuroendocrine marker genes, C4-2B; assay type: cell-based, human; conditions: L-glutamine 2 mM, P<0.0001
Procedure: as §2

CWR22Rv1 [12] = assay: Glutamine transporter gene expression, CWR22Rv1; assay type: cell-based, human; conditions: CWR22Rv1, glutamine 2 mM
Procedure: as §2

[13] = castrated, enzalutamide treated mice, addition of GPNA

N[C@@H](CCC(=O)Nc1ccc([N+](=O)[O-])cc1)C(=O)O [GPNA, L-gamma-glutamyl-p-nitroanilide]
mRNA expression of the panel of neuroendocrine biomarker genes (CWR22Rv1 with CAF): significantly reduced
basal respiration, ATP, and maximal respiration (OCR) (CWR22Rv1 cells [1]): restored basal respiration, ATP, and maximal respiration to that observed with wild type fibroblast-CM
epithelial proliferation (Ki-67 staining of EpCAM+ cells, FACS) (CWR22Rv1 cells [2]): significantly decreased epithelial proliferation
mitotic index (phosphorylated-histone H3) ([3]; P<0.0001): reduced
tumor volume ([3]; P<0.001): reduced tumor volume
basal respiration, ATP, and maximal respiration (OCR) (C4-2B cells [4]): restored basal respiration, ATP, and maximal respiration to that observed with wild type fibroblast-CM
cell death (TUNEL) ([5]; GPNA + ADT vs ADT alone, P<0.001): elevated
localization of phosphorylated-mTOR (Ser-2481) ([5]; GPNA + ADT vs ADT alone, P<0.05): reduced
mitotic index (phosphorylated histone H3) ([5]; GPNA + ADT vs androgen signaling blockage alone): did not significantly change
tumor size ([5]; castrated mice, enzalutamide 5 mg/kg + GPNA 10 mg/kg for three weeks vs ADT alone, P<0.0001): significantly reduced tumor size
chromogranin A expression induced by castration and enzalutamide [5, 13]: reduced chromogranin A expression
histology (H&E) [5, 13]: associated with karyolytic cells

C[C@]1(O)CC[C@H]2[C@@H]3CCC4=CC(=O)CCC4=C3C=C[C@@]21C [R1881]
RASAL3 mRNA expression in NAF (RASAL3 mRNA in NAF): no effect
RASAL3 mRNA expression in CAF (RASAL3 mRNA in CAF): significantly elevated
methylation of the RASAL3 promoter (methylation specific PCR) (RASAL3 promoter): hypomethylation
prevention of CpG methylation of RASAL3 exon 2, over vehicle treated CAF (RASAL3 exon 2): 2.6 fold

CNC(=O)c1ccc(N2C(=S)N(c3ccc(C#N)c(C(F)(F)F)c3)C(=O)C2(C)C)cc1F [enzalutamide]
glutamine expression in bone marrow fibroblasts (bone marrow fibroblasts): promotes
RASAL3 mRNA expression in NAF (RASAL3 mRNA in NAF): downregulated
RASAL3 mRNA expression in CAF (RASAL3 mRNA in CAF): little effect
PSA on treatment ([6]; individual PCa patient on the listed Rx): 0.1 and 344.3 and <0.1 and 116.7
Outcome ([6]; individual PCa patient, responsiveness to ADT based on serum PSA): Responsive (2×) and Non- (2×)
glutamine expression in the conditioned media of prostatic fibroblasts (prostatic fibroblasts): promotes
ALDH (stem marker) [7]: upregulates
Bone morphogenic protein (BMP) expression [8]: upregulated
TET2 expression [8]: induces
tumor growth under ADT ([5]; castrated mice treated with enzalutamide alone): expanded despite ADT
methylation of the RASAL3 promoter (methylation specific PCR) (RASAL3 promoter): hypermethylation

NC(=O)CC[C@H](N)C(=O)O [glutamine, L-glutamine]
SLC38A1 transporter expression (C4-2B): did not seem to be regulated
expression of glutamine importers SLC1A5 and SCL38A2 (C4-2B; time dependent): consistently increased
GLS and GLS2 mRNA expression (C4-2B; within 6 hours of treatment): promote
ALDH (stem marker) [7]: upregulates
Bone morphogenic protein (BMP) expression [8]: upregulated
TET2 expression [8]: upregulates
osteopotegrin (OPG) and FoxMl expression ([8]; increasing doses of Gln (FIG. 15B)): upregulates
CWR22Rv1 proliferation (CWR22Rv1 [9]): restored CWR22Rv1 proliferation
expression of neuroendocrine gene panel (CWR22Rv1 [10]): upregulated
neuroendocrine differentiation (marker gene expression) (C4-2B cells [11]): induce neuroendocrine differentiation
SLC38A1 transporter expression (CWR22Rv1 [12]): did not seem to be regulated
expression of glutamine importers SLC1A5 and SCL38A2 (CWR22Rv1 [12]; time dependent): consistently increased
